Laboratory results taken from article PMC10010643 (Cancer Chemotherapy and Pharmacology, 2023).
Several values for one entry are separate records, joined by “and”; a condition that tells them apart may be missing. Equal values may be shown once. Read-outs that look alike come from different tables or passages of the source.

Assays:
[1] = Safety and tolerability, Part B multiple ascending-dose phase in healthy participants; format: in vivo, human
Description: Following review of safety, tolerability, and PK data from cohorts A1–A6, participants received twice-daily doses (BID) under fasted conditions on days 1–9 and a final single dose in the morning of day 10. […] There was one treatment period and all participants stayed at the CRU from day − 1 until the morning of day 11 (24 h after the final dose on day 10). All were to return for a follow-up visit 5–7 days after their final dose.
Safety and tolerability assessments included adverse event (AE) monitoring, physical examinations, laboratory assessments (hematology, clinical chemistry, and urinalysis), vital signs (blood pressure, pulse rate, and body temperature) and ECG.
No formal statistical assessment was performed for the safety analysis.

[2] = Urine PK, Part A single oral doses in healthy participants; format: in vivo, human; settings: for CL renal: human
Description: A further two cohorts were recruited. […] Each individual participated in one treatment period only, with the exception of the food-effect cohort (cohort A3) in which there were two treatment periods separated by at least 7 days washout. Participants resided at the Clinical Research Unit (CRU) from 1 day ahead of dosing (day − 1) to day 3 and returned for a follow-up visit 5–7 days after their final dose. For all cohorts, doses were administered in the fasted state in the morning of day 1 of Treatment Period 1. In the food-effect cohort, doses were given 30 min after the start of a high-fat breakfast (973 calories total: approximately 150 protein calories, 250 carbohydrate calories, and 500–600 fat calories) on day 1 of Treatment Period 2. For cohorts A1 to A5 in Treatment Period 1, dosing occurred such that one pair (one active and one placebo) were dosed at least 24 h before the remaining participants. Continuation to dose those who remained was at the investigator’s discretion. Escalating doses were administered following satisfactory sponsor and investigator review of the safety and tolerability data (up to 48 h post-final dose) and PK data (up to 24 h post-final dose) from the lower dose levels.
Urine was collected by spot collection in Part A only before dosing and between 0–6, 6–12, 12–24, and 24–48 h post-dose. Blood and urine aliquots were stored in polypropylene tubes at − 70 °C until bioanalysis.
Noncompartmental PK analysis was performed on individual plasma and urine concentration data, using Phoenix® WinNonlin® 8.1 software (Certara USA Inc., Princeton NJ). Plasma PK parameter endpoints for Part A included area under the plasma concentration–time curve (AUC) from time 0 to infinity (AUC0–∞), AUC from time 0 to the time of the last quantifiable concentration (AUC0–tlast), maximum observed plasma concentration (Cmax), time of the maximum observed plasma concentration (Tmax), terminal half-life in plasma (t½), apparent total plasma clearance (CL/F), and apparent volume of distribution (Vz/F). Urine PK parameters calculated in Part A included amount of drug excreted in urine (Ae), percentage of dose excreted unchanged in urine (fe) and renal clearance (CLR).

[3] = single dose 5 mg (1 × 5 mg), fasted
[4] = single dose 20 mg (4 × 5 mg), fasted
[5] = single dose 50 mg (1 × 50 mg), fasted
[6] = single dose 50 mg (1 × 50 mg), fed
[7] = single dose 50 mg (10 × 5 mg), fasted
[8] = single dose 100 mg (2 × 50 mg), fasted
[9] = single dose 200 mg (4 × 50 mg), fasted
[10] = single dose 400 mg (8 × 50 mg), fasted

OC[C@H]1O[C@H](Sc2cncc(Br)c2)[C@H](O)[C@@H](n2cc(-c3cc(F)c(F)c(F)c3)nn2)[C@H]1O [GB1211]
Number of TEAEs ([1]; 50 mg BID): 8 | Participants discontinued due to TEAEs ([1]; 50 mg BID): 0 n (%) | Participants with SAEs ([1]; 50 mg BID): 0 n (%) | Participants with TEAEs ([1]; 50 mg BID): 4 (50.0) n (%) and 4 (50.0%) n (%) | Severity (all TEAEs): Mild ([1]; 50 mg BID): 2 (25.0) n (%) | Severity (all TEAEs): Moderate ([1]; 50 mg BID): 2 (25.0) n (%) | Severity (all TEAEs): Severe ([1]; 50 mg BID): 0 n (%) | Severity (all TEAEs): Total ([1]; 50 mg BID): 4 (50.0) n (%) | Severity (possibly related to study treatment): Mild ([1]; 50 mg BID): 2 (25.0) n (%) | Severity (possibly related to study treatment): Moderate ([1]; 50 mg BID): 2 (25.0) n (%) | Severity (possibly related to study treatment): Severe ([1]; 50 mg BID): 0 n (%) | Severity (possibly related to study treatment): Total ([1]; 50 mg BID): 4 (50.0) n (%) | TEAE Abdominal distension, participants ([1]; 50 mg BID): 0 n (%) | TEAE Abdominal pain upper, participants ([1]; 50 mg BID): 0 n (%) | TEAE Abdominal pain, participants ([1]; 50 mg BID): 0 n (%) | TEAE Arthralgia, participants ([1]; 50 mg BID): 0 n (%) | TEAE Constipation, participants ([1]; 50 mg BID): 0 n (%) | TEAE Dysuria, no. of AEs ([1]; 50 mg BID): 1 | TEAE Dysuria, participants ([1]; 50 mg BID): 1 (12.5%) n (%) | TEAE Gastrointestinal disorders, participants ([1]; 50 mg BID): 0 n (%) | TEAE Headache, no. of AEs ([1]; 50 mg BID): 5 | TEAE Headache, participants ([1]; 50 mg BID): 4 (50.0%) n (%) | TEAE Injury, poisoning and procedural complications, no. of AEs ([1]; 50 mg BID): 1 | TEAE Injury, poisoning and procedural complications, participants ([1]; 50 mg BID): 1 (12.5%) n (%) | TEAE Limb injury, no. of AEs ([1]; 50 mg BID): 1 | TEAE Limb injury, participants ([1]; 50 mg BID): 1 (12.5%) n (%) | TEAE Menstruation irregular, no. of AEs ([1]; 50 mg BID): 1 | TEAE Menstruation irregular, participants ([1]; 50 mg BID): 1 (12.5%) n (%) | TEAE Musculoskeletal and connective tissue disorders, participants ([1]; 50 mg BID): 0 n (%) | TEAE Nervous system disorders, no. of AEs ([1]; 50 mg BID): 5 | TEAE Nervous system disorders, participants ([1]; 50 mg BID): 4 (50.0%) n (%) | TEAE Pain in extremity, participants ([1]; 50 mg BID): 0 n (%) | TEAE Pollakiuria, participants ([1]; 50 mg BID): 0 n (%) | TEAE Renal and urinary disorders, no. of AEs ([1]; 50 mg BID): 1 | TEAE Renal and urinary disorders, participants ([1]; 50 mg BID): 1 (12.5%) n (%) | TEAE Reproductive system and breast disorders, no. of AEs ([1]; 50 mg BID): 1 | TEAE Reproductive system and breast disorders, participants ([1]; 50 mg BID): 1 (12.5%) n (%) | Number of TEAEs considered moderate ([1]; 50 mg BID cohort): Two | Number of TEAEs ([1]; 100 mg BID): 8 | Participants discontinued due to TEAEs ([1]; 100 mg BID): 0 n (%) | Participants with SAEs ([1]; 100 mg BID): 0 n (%) | Participants with TEAEs ([1]; 100 mg BID): 3 (37.5) n (%) and 3 (37.5%) n (%) | Severity (all TEAEs): Mild ([1]; 100 mg BID): 3 (37.5) n (%) | Severity (all TEAEs): Moderate ([1]; 100 mg BID): 0 n (%) | Severity (all TEAEs): Severe ([1]; 100 mg BID): 0 n (%) | Severity (all TEAEs): Total ([1]; 100 mg BID): 3 (37.5) n (%) | Severity (possibly related to study treatment): Mild ([1]; 100 mg BID): 3 (37.5) n (%) | Severity (possibly related to study treatment): Moderate ([1]; 100 mg BID): 0 n (%) | Severity (possibly related to study treatment): Severe ([1]; 100 mg BID): 0 n (%) | Severity (possibly related to study treatment): Total ([1]; 100 mg BID): 3 (37.5) n (%) | TEAE Abdominal distension, no. of AEs ([1]; 100 mg BID): 1 | TEAE Abdominal distension, participants ([1]; 100 mg BID): 1 (12.5%) n (%) | TEAE Abdominal pain upper, no. of AEs ([1]; 100 mg BID): 1 | TEAE Abdominal pain upper, participants ([1]; 100 mg BID): 1 (12.5%) n (%) | TEAE Abdominal pain, participants ([1]; 100 mg BID): 0 n (%) | TEAE Arthralgia, no. of AEs ([1]; 100 mg BID): 1 | TEAE Arthralgia, participants ([1]; 100 mg BID): 1 (12.5%) n (%) | TEAE Constipation, no. of AEs ([1]; 100 mg BID): 2 | TEAE Constipation, participants ([1]; 100 mg BID): 2 (25.0%) n (%) | TEAE Dysuria, participants ([1]; 100 mg BID): 0 n (%) | TEAE Gastrointestinal disorders, no. of AEs ([1]; 100 mg BID): 4 | TEAE Gastrointestinal disorders, participants ([1]; 100 mg BID): 2 (25.0%) n (%) | TEAE Headache, participants ([1]; 100 mg BID): 0 n (%) | TEAE Injury, poisoning and procedural complications, participants ([1]; 100 mg BID): 0 n (%) | TEAE Limb injury, participants ([1]; 100 mg BID): 0 n (%) | TEAE Menstruation irregular, participants ([1]; 100 mg BID): 0 n (%) | TEAE Musculoskeletal and connective tissue disorders, no. of AEs ([1]; 100 mg BID): 2 | TEAE Musculoskeletal and connective tissue disorders, participants ([1]; 100 mg BID): 1 (12.5%) n (%) | TEAE Nervous system disorders, participants ([1]; 100 mg BID): 0 n (%) | TEAE Pain in extremity, no. of AEs ([1]; 100 mg BID): 1 | TEAE Pain in extremity, participants ([1]; 100 mg BID): 1 (12.5%) n (%) | TEAE Pollakiuria, no. of AEs ([1]; 100 mg BID): 2 | TEAE Pollakiuria, participants ([1]; 100 mg BID): 2 (25.0%) n (%) | TEAE Renal and urinary disorders, no. of AEs ([1]; 100 mg BID): 2 | TEAE Renal and urinary disorders, participants ([1]; 100 mg BID): 2 (25.0%) n (%) | TEAE Reproductive system and breast disorders, participants ([1]; 100 mg BID): 0 n (%) | Participants with a TEAE possibly related to treatment, GB1211 ([1]; Part B): 7 | Number of TEAEs on GB1211 ([1]; Part B, all GB1211 doses): 16 | Participants with TEAEs on GB1211 ([1]; Part B, all GB1211 doses): 7 | Geometric mean fe(0–48 h), range across doses ([2]; 5–50 mg dose range (5 mg capsule)): 26.8–30.0% | Geometric mean fe(0–48 h), range across doses ([2]; 50–400 mg dose range (50 mg capsules; fasted state)): 10.5–18.7% | Renal elimination mechanism ([2]; CLR greater than GFR corrected for fu): undergoes active secretion in the kidney | Glomerular filtration rate corrected for the fraction of unbound GB1211 in plasma ([2]; GFR approximately 7.5 L/h, fu 5.34%): approximately 0.4 L/h | CL renal ([2]; urine and plasma, po, single oral dose, read-out: Geometric mean CLR, range across all doses): 30.5 to 44.5 mL/min | CL renal ([2]; urine, oral, 5 mg, single dose 5 mg (1 × 5 mg), fasted, read-out: CLR, geometric mean (CV%) (converted)): 35.3 mL/min | CL renal ([2]; urine, oral, 20 mg, single dose 20 mg (4 × 5 mg), fasted, read-out: CLR, geometric mean (CV%) (converted)): 31.7 mL/min | CL renal ([2]; urine, oral, 50 mg, single dose 50 mg (1 × 50 mg), fasted, read-out: CLR, geometric mean (CV%) (converted)): 37.3 mL/min | CL renal ([2]; urine, oral, 50 mg, single dose 50 mg (1 × 50 mg), fed, read-out: CLR, geometric mean (CV%) (converted)): 36.7 mL/min | CL renal ([2]; urine, oral, 50 mg, single dose 50 mg (10 × 5 mg), fasted, read-out: CLR, geometric mean (CV%) (converted)): 32.3 mL/min | CL renal ([2]; urine, oral, 100 mg, single dose 100 mg (2 × 50 mg), fasted, read-out: CLR, geometric mean (CV%) (converted)): 43.2 mL/min | CL renal ([2]; urine, oral, 200 mg, single dose 200 mg (4 × 50 mg), fasted, read-out: CLR, geometric mean (CV%) (converted)): 30.5 mL/min | CL renal ([2]; urine, oral, 400 mg, single dose 400 mg (8 × 50 mg), fasted, read-out: CLR, geometric mean (CV%) (converted)): 44.5 mL/min | Ae (0–48 h), geometric mean (CV%) [2, 3]: 1.43 (27.0) mg | fe (0–48 h), geometric mean (CV%) [2, 3]: 28.7 (27.0) % | Ae (0–48 h), geometric mean (CV%) [2, 4]: 6.00 (19.7) mg | fe (0–48 h), geometric mean (CV%) [2, 4]: 30.0 (19.7) % | Ae (0–48 h), geometric mean (CV%) [2, 5]: 9.34 (44.1) mg | fe (0–48 h), geometric mean (CV%) [2, 5]: 18.7 (44.1) % | Ae (0–48 h), geometric mean (CV%) [2, 6]: 10.9 (33.5) mg | fe (0–48 h), geometric mean (CV%) [2, 6]: 21.7 (33.5) % | Ae (0–48 h), geometric mean (CV%) [2, 7]: 13.4 (38.7) mg | fe (0–48 h), geometric mean (CV%) [2, 7]: 26.8 (38.7) % | Ae (0–48 h), geometric mean (CV%) [2, 8]: 15.3 (34.8) mg | fe (0–48 h), geometric mean (CV%) [2, 8]: 15.3 (34.8) % | Ae (0–48 h), geometric mean (CV%) [2, 9]: 21.0 (28.0) mg | fe (0–48 h), geometric mean (CV%) [2, 9]: 10.5 (28.0) % | Ae (0–48 h), geometric mean (CV%) [2, 10]: 50.7 (33.6) mg | fe (0–48 h), geometric mean (CV%) [2, 10]: 12.7 (33.6) %
